From patent US7175872B2, “Pyridinium-Betain compounds for use as taste modulators” (Nestec S.A., priority 2002, dated 2007) come the findings set out here.

“Also recorded” adds a separate entry of the source. Counter-ions that a name gives are not always drawn.

What all share (type): in vivo
The test system of assay [1] is sweet taste of sucrose. The experiment in a line: Sweet taste detection threshold of sucrose/Pyridinium-Betaine mixtures (triangle test, sensory panel). Also noted: key to Threshold decrease: fold decrease of sweet threshold vs pure sucrose. The conditions noted are these: equimolar mixture with sucrose; for Threshold decrease: vs sucrose in water 12.5 mmol/L. The procedure:
• Sensory panel training: […] Sensory analyses were performed in a sensory panel room at 22-25° C. on three different sessions. • Taste thresholds: The taste thresholds of the tastants or mixtures containing basic tastants plus Pyridinium-Betains were determined in a triangle test using Evian® mineral water as the solvent at a defined pH ([…] and H.-D. Belitz, Z. Lebensm. Unters. Forsch. 1975, 159, 65-72). The samples (3 mL) were presented in order of increasing concentrations (serial 1:1 dilutions). The threshold values evaluated in two different sessions were averaged. […] The taste intensities of aqueous (Evian®) solutions containing a basic tastant, such as glucose and MSG, for example, in constant concentrations and the compounds of the general formula (A), for example […], in various concentrations were compared with those of a solution containing the basic tastant only. To achieve this, triangle tests were performed with two glass vials containing the basic tastant in constant concentrations, and one glass vial containing a stepwise 1:1-diluted mixture of basic […]. […] The relative taste strength (taste enhancing factor) of a mixture containing the basic […] was related to the basic tastants glucose, MSG, or other tastants, respectively, as standard substances, and was determined as the ratio of the concentrations c of iso-intensely tasting solutions of the basic tastant, such as glucose (glc), and the mixture containing tastant plus Pyridinium-Betain, […])=[…] This taste enhancing effect is illustrated in examples. The sweet taste thresholds of equimolar mixtures of sweet tasting compounds and various Pyridinium-Betaines were determined by a triangle test using EVIAN® mineral water as the solvent. The sensorial evaluations were performed at different pH values. The equimolar mixture of […] and sucrose at pH 7.0 was evaluated with a 4-fold lower sweet threshold concentration than pure sucrose (Table 1).

The test system of assay [2] is umami taste of MSG. Put plainly: Umami taste detection threshold of MSG/Pyridinium-Betaine mixtures (triangle test, sensory panel). The conditions noted are these: equimolar mixture with MSG; for Threshold decrease: vs MSG in water 1.5 mmol/L. As for the experimental part:
• Sensory panel training: […] Sensory analyses were performed in a sensory panel room at 22-25° C. on three different sessions. • Taste thresholds: The taste thresholds of the tastants or mixtures containing basic tastants plus Pyridinium-Betains were determined in a triangle test using Evian® mineral water as the solvent at a defined pH ([…] and H.-D. Belitz, Z. Lebensm. Unters. Forsch. 1975, 159, 65-72). The samples (3 mL) were presented in order of increasing concentrations (serial 1:1 dilutions). The threshold values evaluated in two different sessions were averaged. […] The taste intensities of aqueous (Evian®) solutions containing a basic tastant, such as glucose and MSG, for example, in constant concentrations and the compounds of the general formula (A), for example […], in various concentrations were compared with those of a solution containing the basic tastant only. To achieve this, triangle tests were performed with two glass vials containing the basic tastant in constant concentrations, and one glass vial containing a stepwise 1:1-diluted mixture of basic […]. […] The relative taste strength (taste enhancing factor) of a mixture containing the basic […] was related to the basic tastants glucose, MSG, or other tastants, respectively, as standard substances, and was determined as the ratio of the concentrations c of iso-intensely tasting solutions of the basic tastant, such as glucose (glc), and the mixture containing tastant plus Pyridinium-Betain, […])=[…] […] This taste enhancing effect is illustrated in examples. Pyridinium-Betaines not only enhance the sweet taste perception, but also the umami taste.

Assay [3] relates to sweet taste of glucose. The experiment in a line: Iso-intensity: relative sweetness of glucose/Alapyridaine mixtures. As for the experimental part:
• Sensory panel training: […] Sensory analyses were performed in a sensory panel room at 22-25° C. on three different sessions. • Taste thresholds: The taste thresholds of the tastants or mixtures containing basic tastants plus Pyridinium-Betains were determined in a triangle test using Evian® mineral water as the solvent at a defined pH ([…] and H.-D. Belitz, Z. Lebensm. Unters. Forsch. 1975, 159, 65-72). The samples (3 mL) were presented in order of increasing concentrations (serial 1:1 dilutions). The threshold values evaluated in two different sessions were averaged. […] The taste intensities of aqueous (Evian®) solutions containing a basic tastant, such as glucose and MSG, for example, in constant concentrations and the compounds of the general formula (A), for example […], in various concentrations were compared with those of a solution containing the basic tastant only. […] The relative taste strength (taste enhancing factor) of a mixture containing the basic […] was related to the basic tastants glucose, MSG, or other tastants, respectively, as standard substances, and was determined as the ratio of the concentrations c of iso-intensely tasting solutions of the basic tastant, such as glucose (glc), and the mixture containing tastant plus Pyridinium-Betain, […])=[…] […]

For the compound `CC(C(=O)[O-])[n+]1cc(O)ccc1CO` (centres unmarked) [Alapyridaine, N-(1-carboxyethyl)-3-hydroxy-6-hydroxymethyl-pyridinium inner salt], the Sweet detection threshold stood at 3.0 mmol/kg water in assay [1] (pH 5.0), 3.0 mmol/kg water in assay [1] (pH 7.0) and 1.5 mmol/kg water in assay [1] (pH 9.0). Also, the Taste quality result in assay [1] (pH 5.0) is on record as “sour taste; also recorded: sweet/”; in assay [1] (pH 7.0), “sweet”; in assay [1] (pH 9.0), “sweet”; in assay [2] (pH 5.0) it was “umami”; in assay [2] (pH 7.0), “umami”; in assay [2] (pH 9.0), “umami”. The Threshold decrease in assay [1] (pH 5.0) is reported as 4.0; in assay [1] (pH 7.0) it was 4; in assay [1] (pH 9.0) it was 8; in assay [2] (pH 5.0), 4.0; in assay [2] (pH 7.0) it was 4.0; in assay [2] (pH 9.0), 4.0. The Umami detection threshold in assay [2] (pH 5.0), in assay [2] (pH 7.0) and in assay [2] (pH 9.0) was 0.4 mmol/kg water each time. The “relative sweetness (iso-intensity)” value in assay [3] (80 mmol/kg glucose and 125 mmol/kg Alapyridaine vs 80 mmol/kg glucose) is given as 8 -fold. Moreover, the “maximum relative sweetness (iso-intensity)” value in assay [3] (267 mmol/kg glucose and 125 mmol/kg Alapyridaine vs reference solution 267 mmol/kg glucose) was 5.3 -fold.
